The values that follow come from patent US7655683B2, “Imidazolopyrazole derivatives useful as selective androgen receptor modulators” (Janssen Pharmaceutica NV, priority 2006, dated 2010).

Molecules are shown by their SMILES. Where two headings read alike, the source gives them in different places. Bounds are passed on as bounds.

Assay [1] relates to ventral prostate and seminal vesicle of immature castrated male Sprague Dawley rats. The assay can be described thus: Ventral Prostate and Seminal Vesicle Weight in vivo Assay (antagonist activity, with testosterone propionate). Also noted: key to Inhibition of prostate (non-weight prostate weight, mg) / Inhibition of seminal vesicle (non-weight seminal vesicle weight, mg): level 1 agonist active if it produced greater than or equal to 30% stimulation of levator ani or ventral prostate at 30 mg/kg; level 2 agonist active if it produced greater than or equal to 5% but less than 30% stimulation of levator ani or ventral prostate at 30 mg/kg; listed herein as “inactive” as they did not meet the specified criteria defined above. As to conditions: test compound oral plus testosterone propionate 2 mg/kg s.c., five days, criteria at 30 mg/kg; for inhibition in vivo at 30 mg/kg: Rattus norvegicus, 120 h. As for the experimental part: Immature (approximately 50 g) castrated male Sprague Dawley rats (Charles River) were treated once daily for five days with test compound ([…], in 30% cyclodextrin or 0.5% methylcellulose vehicle) and with testosterone propionate (given subcutaneously by injection at the nape of the neck at 2 mg/kg, in a volume of 0.1 mL in sesame oil). On the sixth day, the rats were euthanized by asphyxiation in carbon dioxide. Ventral prosatates and seminal vesicles were removed and their wet weights determined. Test compound activity was determined as the percent inhibition of testosterone-enhanced tissue weights, with a vehicle-treated control group set to zero percent and a testosterone alone-treated control group set to 100%.

Assay [2] has as its system ventral prostate and levator ani of immature castrated male Sprague Dawley rats. Kind of assay: Ventral Prostate and Levator ani Weight in vivo Assay (agonist activity). The note with it: once daily for five days, oral, vehicle = 0%, testosterone propionate = 100%, criteria at 30 mg/kg; for change in vivo at 30 mg/kg: Rattus norvegicus, 120 h. Also noted: key to % Prostate Stimulation / % levator ani Stimulation: level 1 agonist active if it produced greater than or equal to 30% stimulation of levator ani or ventral prostate at 30 mg/kg; level 2 agonist active if it produced greater than or equal to 5% but less than 30% stimulation of levator ani or ventral prostate at 30 mg/kg; listed herein as “inactive” as they did not meet the specified criteria defined above. On the procedure:
Immature (approximately 50 g) castrated male Sprague Dawley rats (Charles River) were treated once daily for five days with test compound ([…], in 30% cyclodextrin or 0.5% methylcellulose vehicle), or with testosterone propionate (administered subcutaneously by injection at the nape of the neck at 5 mg/kg, in a volume of 0.1 mL in sesame oil), or with vehicle (1 mL of 30% cyclodextrin or 0.5% methylcellulose, given orally). On the sixth day, the rats were euthanized by asphyxiation in carbon dioxide. Ventral prostates and levator ani. muscle were removed and their wet weights determined.
Test compound activity was determined as the percent stimulation of tissue weight, with the vehicle-treated control group set to zero percent and the testosterone alone-treated control group set to 100%.

[3] abbreviates: seminal vesicle wet weight, read-out: Inhibition of seminal vesicle (non-weight seminal vesicle weight, mg).
[4] abbreviates: ventral prostate wet weight, read-out: Inhibition of prostate (non-weight prostate weight, mg).
Setting [5] is: levator ani wet weight, read-out: % levator ani Stimulation.
Setting [6] is: ventral prostate wet weight, read-out: % Prostate Stimulation.
[7] abbreviates: levator ani wet weight, 30 mg/kg.
Setting [8] is: ventral prostate wet weight, 30 mg/kg.

As for `CCc1c(/N=C2\N=C(N)N3N=C(C(F)(F)F)CC23C)ccc(C#N)c1C(F)(F)F` (stereo not shown) [Compound 9, 4-(6-Amino-3a-methyl-2-trifluoromethyl-3,3a-dihydro-imidazo[1,5-b]pyrazol-4-ylideneamino)-3-ethyl-2-trifluoromethyl-benzonitrile], the inhibition in vivo at 30 mg/kg in assay [1] (setting [3]) is not below 30%; in assay [1] (setting [4]), 5 to 30%. In addition, the change in vivo at 30 mg/kg in assay [2] (setting [5]) and in assay [2] (setting [6]) was 5 to 30% throughout.

On to `CC12CC(c3c(F)c(F)c(F)c(F)c3F)=NN1C(N)=N/C2=N\c1ccc(C#N)c(C(F)(F)F)c1` (stereo not shown) [Compound 11, 4-(6-Amino-3a-methyl-2-pentafluorophenyl-3,3a-dihydro-imidazo[1,5-b]pyrazol-4-ylideneamino)-2-trifluoromethyl-benzonitrile], for which the change in vivo at 30 mg/kg in assay [2] (setting [5]) and in assay [2] (setting [6]) was 5 to 30% each time.

In the case of `CC12CC(C(F)(F)F)=NN1C(N)=N/C2=N\c1ccc(C#N)c(C(F)(F)F)c1` (stereo not shown) [Compound 1, 4-(6-Amino-3a-methyl-2-trifluoromethyl-3,3a-dihydro-imidazo[1,5-b]pyrazol-4-ylideneamino)-2-trifluoromethyl-benzonitrile], the inhibition in vivo at 30 mg/kg in assay [1] (setting [3]) is not below 30%; in assay [1] (setting [4]) it was 5 to 30%. Besides, the change in vivo at 30 mg/kg in assay [2] (setting [5]) and in assay [2] (setting [6]) was not below 30% in each case.

Consider `C[C@]12CC(C(F)(F)F)=NN1C(NC(=O)Nc1ccc(I)cc1)=N/C2=N\c1ccc(C#N)c(C(F)(F)F)c1` [Compound 14, 1-[4-(4-Cyano-3-trifluoromethyl-phenylimino)-3aR-methyl-2-trifluoromethyl-3a,4-dihydro-3H-imidazo[1,5-b]pyrazol-6-yl]-3-(4-iodo-phenyl)-urea], for which the inhibition in vivo at 30 mg/kg in assay [1] (setting [4]) lay within 5 to 30%. Also, the “Inhibition of seminal vesicle (non-weight seminal vesicle weight, mg)” value in assay [1] (seminal vesicle wet weight) is “inactive”. Moreover, the results for the change in vivo at 30 mg/kg in assay [2] (setting [5]) and in assay [2] (setting [6]) were not below 30% and 5 to 30%, respectively.

As to `C[C@]12CC(C(F)(F)F)=NN1C(N)=NC2=Nc1ccc(C#N)c(C(F)(F)F)c1.O` [Compound 20, 4-(6-Amino-3aR-methyl-2-trifluoromethyl-3,3a-dihydro-imidazo[1,5-b]pyrazol-4-ylideneamino)-2-trifluoromethyl-benzonitrile-Hydrates], the “Inhibition of seminal vesicle (non-weight seminal vesicle weight, mg)” value in assay [1] (seminal vesicle wet weight) is on record as “level 1 (level 1 antagonist active if it produced greater than or equal to 30% inhibition of ventral prostate or seminal vesicle at 30 mg/kg)”. Besides, in assay [1] (ventral prostate wet weight), the “Inhibition of prostate (non-weight prostate weight, mg)” value was “level 2 (level 2 antagonist active if it produced greater than or equal to 5% but less than 30% inhibition of ventral prostate or seminal vesicle at 30 mg/kg)”. The “% levator ani Stimulation” value in assay [2] (setting [7]) is given as “level 2 (level 2 agonist active if it produced greater than or equal to 5% but less than 30% stimulation of levator ani or ventral prostate at 30 mg/kg)”. Besides, the “% Prostate Stimulation” value in assay [2] (setting [8]) was “level 2 (level 2 agonist active if it produced greater than or equal to 5% but less than 30% stimulation of levator ani or ventral prostate at 30 mg/kg)”.

Take `CCC12CC(C(F)(F)F)=NN1C(N)=N/C2=N\c1ccc(C#N)c(C(F)(F)F)c1` (stereo not shown) [Compound 8, 4-(6-Amino-3a-ethyl-2-trifluoromethyl-3,3a-dihydro-imidazo[1,5-b]pyrazol-4-ylideneamino)-2-trifluoromethyl-benzonitrile]: the inhibition in vivo at 30 mg/kg in assay [1] (setting [3]) lay in the range of 5 to 30%. Moreover, in assay [1] (ventral prostate wet weight), the “Inhibition of prostate (non-weight prostate weight, mg)” value was “inactive”. Further, the change in vivo at 30 mg/kg in assay [2] (setting [5]) and in assay [2] (setting [6]) was 5 to 30% throughout.

`CC12CC(C(F)(F)F)=NN1C(N)=N/C2=N\c1ccc(Br)c(C(F)(F)F)c1` (stereo not shown) [Compound 10, 4-(4-Bromo-3-trifluoromethyl-phenylimino)-3a-methyl-2-trifluoromethyl-3a,4-dihydro-3H-imidazo[1,5-b]pyrazol-6-ylamine]: the inhibition in vivo at 30 mg/kg in assay [1] (setting [3]) and in assay [1] (setting [4]) was 5 to 30% each time. In addition, in assay [2] (levator ani wet weight), the “% levator ani Stimulation” value was “inactive”. The “% Prostate Stimulation” value in assay [2] (ventral prostate wet weight) was “inactive”.

Consider `C[C@@]12CC(C(F)(F)F)=NN1C(N)=NC2=Nc1ccc(C#N)c(C(F)(F)F)c1.O` [Compound 21, 4-(6-Amino-3aS-methyl-2-trifluoromethyl-3,3a-dihydro-imidazo[1,5-b]pyrazol-4-ylideneamino)-2-trifluoromethyl-benzonitrile-Hydrates], for which, in assay [1] (seminal vesicle wet weight), the “Inhibition of seminal vesicle (non-weight seminal vesicle weight, mg)” value was “level 1 (level 1 antagonist active if it produced greater than or equal to 30% inhibition of ventral prostate or seminal vesicle at 30 mg/kg)”. Moreover, the “Inhibition of prostate (non-weight prostate weight, mg)” value in assay [1] (ventral prostate wet weight) is recorded as “level 1 (level 1 antagonist active if it produced greater than or equal to 30% inhibition of ventral prostate or seminal vesicle at 30 mg/kg)”. In addition, in assay [2] (setting [7]), the “% levator ani Stimulation” value is “level 1 (level 1 agonist active if it produced greater than or equal to 30% stimulation of levator ani or ventral prostate at 30 mg/kg)”. The “% Prostate Stimulation” value in assay [2] (setting [8]) was “level 1 (level 1 agonist active if it produced greater than or equal to 30% stimulation of levator ani or ventral prostate at 30 mg/kg)”.

On to `CC12CC(C(F)(F)F)=NN1C(N)=N/C2=N\c1ccc(Cl)c(Cl)c1` (stereo not shown) [Compound 4, 4-(3,4-Dichloro-phenylimino)-3a-methyl-2-trifluoromethyl-3a,4-dihydro-3H-imidazo[1,5-b]pyrazol-6-ylamine], for which the inhibition in vivo at 30 mg/kg in assay [1] (setting [3]) and in assay [1] (setting [4]) was 5 to 30% throughout. In assay [2] (levator ani wet weight), the “% levator ani Stimulation” value was “inactive”. The “% Prostate Stimulation” value in assay [2] (ventral prostate wet weight) was “inactive”.

As for `C[C@@]12CC(C(F)(F)F)=NN1C(N)=NC2=Nc1ccc(C#N)c(C(F)(F)F)c1.O` [Compound 18, 4-(6-Amino-3aS-methyl-2-trifluoromethyl-3,3a-dihydro-imidazo[1,5-b]pyrazol-4-ylideneamino)-2-trifluoromethyl-benzonitrile-Hydrates], the “Inhibition of seminal vesicle (non-weight seminal vesicle weight, mg)” value in assay [1] (seminal vesicle wet weight) is “inactive”. Also, the “Inhibition of prostate (non-weight prostate weight, mg)” value in assay [1] (ventral prostate wet weight) is “inactive”. The “% levator ani Stimulation” value in assay [2] (setting [7]) was “level 2 (level 2 agonist active if it produced greater than or equal to 5% but less than 30% stimulation of levator ani or ventral prostate at 30 mg/kg)”. In assay [2] (setting [8]), the “% Prostate Stimulation” value was “inactive”.

Regarding `C[C@]12CC(C(F)(F)F)=NN1C(N)=NC2=Nc1ccc(C#N)c(C(F)(F)F)c1.O` [Compound 17, 4-(6-Amino-3aR-methyl-2-trifluoromethyl-3,3a-dihydro-imidazo[1,5-b]pyrazol-4-ylideneamino)-2-trifluoromethyl-benzonitrile-Hydrates], the “Inhibition of seminal vesicle (non-weight seminal vesicle weight, mg)” value in assay [1] (seminal vesicle wet weight) is recorded as “leve 1”. Also, in assay [1] (ventral prostate wet weight), the “Inhibition of prostate (non-weight prostate weight, mg)” value was “inactive”. Further, in assay [2] (setting [7]), the “% levator ani Stimulation” value is reported as “level 1 (level 1 agonist active if it produced greater than or equal to 30% stimulation of levator ani or ventral prostate at 30 mg/kg)”. In addition, the “% Prostate Stimulation” value in assay [2] (setting [8]) is on record as “level 2 (level 2 agonist active if it produced greater than or equal to 5% but less than 30% stimulation of levator ani or ventral prostate at 30 mg/kg)”.

On to `CC12CC(C(F)(F)F)=NN1C(N)=N/C2=N\c1ccc([N+](=O)[O-])c(C(F)(F)F)c1` (stereo not shown) [Compound 5, 3a-Methyl-4-(4-nitro-3-trifluoromethyl-phenylimino)-2-trifluoromethyl-3a,4-dihydro-3H-imidazo[1,5-b]pyrazol-6-ylamine], for which the inhibition in vivo at 30 mg/kg in assay [1] (setting [3]) was not below 30%. For the same compound, in assay [1] (ventral prostate wet weight), the “Inhibition of prostate (non-weight prostate weight, mg)” value was “inactive”. In addition, in assay [2] (levator ani wet weight), the “% levator ani Stimulation” value was “inactive”. Moreover, in assay [2] (ventral prostate wet weight), the “% Prostate Stimulation” value was “inactive”.
